Measurements taken from EP0923551B1, “4-AMINOETHOXY INDOLONE DERIVATIVES” (AMERICAN HOME PRODUCTS CORPORATION, priority 1996, dated 1998).

Target: dopamine autoreceptor (Rattus norvegicus, UniProt P61169)
Assay: Affinity for the dopamine autoreceptor, 3H-quinpirole binding in homogenized rat striatal brain tissue
Settings: for IC50: 3H-quinpirole, homogenized rat striatal brain tissue, read-out: IC50 (nM) D2 Quin.; for Ratio: ratio of IC50 D2 Spiper to IC50 D2 Quin. (LowAg/HighAg, predicts intrinsic activity)

Chain of dopamine autoreceptor (P61169 whole entry): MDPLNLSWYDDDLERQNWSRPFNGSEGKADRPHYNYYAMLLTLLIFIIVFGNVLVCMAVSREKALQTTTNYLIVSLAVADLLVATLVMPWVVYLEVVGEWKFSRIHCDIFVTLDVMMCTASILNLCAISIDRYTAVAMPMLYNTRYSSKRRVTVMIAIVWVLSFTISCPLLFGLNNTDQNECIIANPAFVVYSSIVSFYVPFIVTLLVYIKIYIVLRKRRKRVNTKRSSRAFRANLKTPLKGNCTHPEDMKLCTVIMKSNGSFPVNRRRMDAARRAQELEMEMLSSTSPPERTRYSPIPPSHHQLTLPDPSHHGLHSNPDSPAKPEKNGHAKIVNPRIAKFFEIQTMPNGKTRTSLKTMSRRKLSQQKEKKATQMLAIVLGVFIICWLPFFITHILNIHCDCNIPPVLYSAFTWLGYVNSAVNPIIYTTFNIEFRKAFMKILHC

SMILES	IC50	Ratio
O=C1Cc2c(OCCNCc3ccc(F)cc3)ccc(Cl)c2N1 [Example 4]	2.54 nM	69
CCCCNCCOc1ccc(Cl)c2c1CC(=O)N2 [Example 8, 4-(2-Butylamino-ethoxy)-7-chloro-1,3-dihydro-indol-2-one]	1.89 nM	76
CN(CCOc1ccc(Cl)c2c1CC(=O)N2)Cc1ccccc1 [Example 7, 4-[2-(N-Benzyl-N-methyl-amino)-ethoxy]-7-chloro-1,3-dihydro-indol-2-one]	3.68 nM	63
O=C1Cc2c(OCCNCc3ccc(Cl)cc3)ccc(Cl)c2N1 [Example 5]	2.81 nM	19
Cc1ccc(CNCCOc2ccc(Cl)c3c2CC(=O)N3)cc1 [Example 6]	1.1 nM	52
O=C1Cc2c(OCCNCc3ccccc3)ccc(Cl)c2N1 [Example 14, 4-(2-Benzylamino-ethoxy)-7-chloro-1,3-dihydro-indol-2-one]	0.82 nM	44
O=C1Cc2c(cccc2OCCNCc2ccccc2)N1 [Example 1, 4-(2-Benzylaminoethoxy)-1,3-dihydro-indol-2-one]	0.41 nM	354
NCCOc1cccc2c1CC(=O)N2 [Example 3, 4-(2-Amino-ethoxy)-1,3-dihydro-indol-2-one]	13.9 nM	246
CNCCOc1cccc2c1CC(=O)N2 [Example 2, 4-(2-Methylamino-ethoxy)-1,3-dihydro-indol-2-one]	4.31 nM	213
O=C1Cc2c(OCCN3CCc4ccccc4C3)ccc(Cl)c2N1 [Example 9, 7-Chloro-4-[2-(3,4-dihydro-1H-isoquinolin-2-yl)-ethoxy]-1,3-dihydro-indol-2-one]	1.31 nM	62
O=C1Cc2c(OCCN3Cc4ccccc4C3)ccc(Cl)c2N1 [Example 10, 7-Chloro-4-[2-(1,3-dihydro-isoindol-2-yl)-ethoxy]-1,3-dihydro-indol-2-one]	0.55 nM	–
O=C1Cc2c(cccc2OCCNCCCCc2ccccc2)N1 [Example 13]	0.45 nM	55
O=C1Cc2c(OCCNCC3CCCCC3)ccc(F)c2N1 [Example 16, 4-[2-(Cyclohexylmethyl-amino)-ethoxy)-7-fluoro-1,3-dihydro-indol-2-one]	1.58 nM	63
O=C1Cc2c(OCCNCc3ccccc3)ccc(F)c2N1 [Example 15, 4-(2-Benzylamino-ethoxy)-7-fluoro-1,3-dihydro-indol-2-one]	0.91 nM	76
O=C1Cc2c(OCCNCc3ccc(-c4ccccc4)cc3)ccc(Cl)c2N1 [Example 11, 4-{2-[(Biphenyl-4-ylmethyl)-amino]-ethoxy}-7-chloro-1,3-dihydro-indol-2-one]	41.1 nM	–

The remaining lines, values ahead:

IC50	Ratio	SMILES
1.27 nM	–	O=C1Cc2c(OCCNCc3ccc4ccccc4c3)ccc(F)c2N1 [Example 21, 7-Fluoro-4-{2-[(napthalen-2-ylmethyl)-aminol]-ethoxy}-1,3-dihydro-indol-2-one]
0.3 nM	–	O=C1Cc2c(OCCNCCCc3c[nH]c4ccccc34)ccc(F)c2N1 [Example 18, 4-{2-[3-(1H-Indol-yl)-propylamino]-ethoxy}-7-fluoro-1,3-dihydro-indol-2-one]
6.22 nM	57	CN(CCCC(=O)c1ccc(F)cc1)CCOc1cccc2c1CC(=O)N2 [Example 27, 4-(2-{[4-(4-Fluoro-phenyl)-4-oxo-butyl]-methyl-amino}-ethoxy)-1,3-dihydro-indol-2-one]
3.57 nM	–	O=C1Cc2c(OCCN3Cc4ccccc4C3)ccc(F)c2N1 [Example 19, 4-[2-(1,3-Dihydro-isoindol-2-yl)-ethoxy]-7-fluoro-1,3-dihydro-indol-2-one]
11.1 nM	–	O=C1Cc2c(OCCNCc3ccc(-c4ccccc4)cc3)ccc(F)c2N1 [Example 20, 4-{2-[(Biphenyl-4-ylmethyl)-amino]-ethoxy}-7-fluoro-1,3-dihydro-indol-2-one]
1.84 nM	–	O=C1Cc2c(OCCN3CCc4ccccc4C3)ccc(F)c2N1 [Example 22, 4-[2-(3,4-Dihydro-1H-isoquinolin-2-yl)-ethoxy]-7-fluoro-1,3-dihydro-indol-2-one]
31.2 nM	619	Cc1cccc(CN(CCOc2cccc3c2CC(=O)N3)Cc2cccc(C)c2)c1 [Example 26, 4-{2-[Bis-(3-methyl-benzyl)-amino]-ethoxy}-1,3-dihydro-indol-2-one]
1.52 nM	424	CN(CCOc1cccc2c1CC(=O)N2)Cc1ccccc1 [Example 25, 4-[2-(Benzyl-methyl-amino)-ethoxy]-1,3-dihydro-indol-2-one]
